For 25 compounds, IC50 results are on record in US8653092B2, “Tetrahydro-pyrido-pyrimidine derivatives” (Novartis AG, priority 2010, dated 2014).

Like-named read-outs stand apart in the source and are kept apart here.

For experiment [1], the target named is PI3K alpha (Homo sapiens (Human), UniProt P42336). Put plainly: Enzymatic PI3K alpha isoform inhibition (lipid kinase, Kinase-Glo luminescence). Format: biochemical. The following applies: enzymatic assay.
In experiment [2] the target is PI3K delta (Homo sapiens (Human), UniProt O00329). As to the kind of experiment: Enzymatic PI3K delta isoform inhibition (lipid kinase, Kinase-Glo luminescence). Format: biochemical.
PI3K delta, sequence (O00329 other isoform, or with tags, fused parts or gaps linker GGGGGG): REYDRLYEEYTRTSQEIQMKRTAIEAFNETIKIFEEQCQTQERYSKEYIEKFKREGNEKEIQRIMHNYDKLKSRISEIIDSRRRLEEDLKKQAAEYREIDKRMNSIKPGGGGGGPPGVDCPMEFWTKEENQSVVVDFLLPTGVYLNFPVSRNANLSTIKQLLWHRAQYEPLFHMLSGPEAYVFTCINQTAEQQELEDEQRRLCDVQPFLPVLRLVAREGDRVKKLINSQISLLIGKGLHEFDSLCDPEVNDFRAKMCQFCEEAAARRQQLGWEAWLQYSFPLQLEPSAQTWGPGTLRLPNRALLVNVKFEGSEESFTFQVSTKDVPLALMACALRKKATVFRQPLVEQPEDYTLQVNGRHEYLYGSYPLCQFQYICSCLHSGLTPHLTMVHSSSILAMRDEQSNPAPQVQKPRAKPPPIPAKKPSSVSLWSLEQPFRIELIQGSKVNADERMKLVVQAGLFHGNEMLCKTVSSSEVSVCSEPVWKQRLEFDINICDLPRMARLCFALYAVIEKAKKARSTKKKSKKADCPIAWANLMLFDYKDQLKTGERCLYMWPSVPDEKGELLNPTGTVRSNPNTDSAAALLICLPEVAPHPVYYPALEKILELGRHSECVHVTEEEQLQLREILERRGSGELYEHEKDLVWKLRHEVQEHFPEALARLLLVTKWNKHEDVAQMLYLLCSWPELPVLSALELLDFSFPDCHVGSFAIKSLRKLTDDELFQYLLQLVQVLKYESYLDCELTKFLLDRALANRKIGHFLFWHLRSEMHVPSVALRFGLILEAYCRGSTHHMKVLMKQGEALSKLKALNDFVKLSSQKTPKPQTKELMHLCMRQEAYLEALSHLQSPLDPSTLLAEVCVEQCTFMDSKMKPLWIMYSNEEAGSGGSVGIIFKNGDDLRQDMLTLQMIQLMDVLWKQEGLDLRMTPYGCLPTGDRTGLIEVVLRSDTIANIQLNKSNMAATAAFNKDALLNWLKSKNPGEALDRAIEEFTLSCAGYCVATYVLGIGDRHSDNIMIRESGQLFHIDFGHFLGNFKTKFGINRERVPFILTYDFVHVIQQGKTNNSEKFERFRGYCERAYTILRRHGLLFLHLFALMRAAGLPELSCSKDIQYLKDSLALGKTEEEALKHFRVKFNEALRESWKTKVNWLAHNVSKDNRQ

PI3K alpha, sequence (P42336 other isoform, or with tags, fused parts or gaps): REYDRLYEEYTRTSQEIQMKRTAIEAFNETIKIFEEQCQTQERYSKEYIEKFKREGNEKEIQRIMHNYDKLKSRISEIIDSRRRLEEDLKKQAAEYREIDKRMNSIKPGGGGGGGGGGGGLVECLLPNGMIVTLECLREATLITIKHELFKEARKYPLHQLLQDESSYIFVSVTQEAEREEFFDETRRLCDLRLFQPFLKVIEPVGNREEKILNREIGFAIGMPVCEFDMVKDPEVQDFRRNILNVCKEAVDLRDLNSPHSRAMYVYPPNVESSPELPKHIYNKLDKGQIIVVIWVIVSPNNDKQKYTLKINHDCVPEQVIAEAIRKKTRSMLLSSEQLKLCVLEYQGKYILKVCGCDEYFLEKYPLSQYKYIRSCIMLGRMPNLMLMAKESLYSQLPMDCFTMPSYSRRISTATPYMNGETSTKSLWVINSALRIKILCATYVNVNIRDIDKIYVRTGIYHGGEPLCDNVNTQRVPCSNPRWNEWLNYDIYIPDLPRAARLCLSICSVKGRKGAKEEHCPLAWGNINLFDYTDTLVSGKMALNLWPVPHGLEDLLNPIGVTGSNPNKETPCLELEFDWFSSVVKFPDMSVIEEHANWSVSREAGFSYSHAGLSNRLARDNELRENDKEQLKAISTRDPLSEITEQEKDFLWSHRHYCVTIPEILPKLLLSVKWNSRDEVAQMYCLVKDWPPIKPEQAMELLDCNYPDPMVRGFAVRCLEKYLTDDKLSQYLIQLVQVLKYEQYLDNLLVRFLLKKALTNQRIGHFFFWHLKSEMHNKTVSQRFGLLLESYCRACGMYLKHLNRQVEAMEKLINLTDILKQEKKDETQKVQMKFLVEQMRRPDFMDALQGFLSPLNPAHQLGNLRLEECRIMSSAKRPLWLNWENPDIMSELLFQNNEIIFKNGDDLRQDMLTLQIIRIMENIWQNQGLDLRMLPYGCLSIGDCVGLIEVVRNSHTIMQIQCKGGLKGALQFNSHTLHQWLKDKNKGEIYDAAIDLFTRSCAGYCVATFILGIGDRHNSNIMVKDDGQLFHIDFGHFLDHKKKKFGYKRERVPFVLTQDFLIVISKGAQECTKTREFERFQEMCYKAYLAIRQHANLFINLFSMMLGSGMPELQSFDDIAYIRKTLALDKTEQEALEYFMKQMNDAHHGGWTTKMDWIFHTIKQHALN

On to `COc1ncc(N2CCc3ncnc(O[C@H]4CCN(C(=O)c5c[nH]cn5)C4)c3C2)cc1C(F)(F)F` [Example 45, (1H-Imidazol-4-yl)-{(S)-3-[6-(6-methoxy-5-trifluoromethyl-pyridin-3-yl)-5,6,7,8-tetrahydro-pyrido[4,3-d]pyrimidin-4-yloxy]-pyrrolidin-1-yl}-methanone], for which the IC50 in experiment [1] amounted to 860 nM; in experiment [2] (enzymatic assay) it was 18 nM.
Taken in the same sequence, the figures for `COc1ncc(N2CCc3ncnc(O[C@H]4CCN(C(=O)C5CCC(=O)N5)C4)c3C2)cc1C(F)(F)F` (stereo partly drawn) [Example 46, 5-{(S)-3-[6-(6-Methoxy-5-trifluoromethyl-pyridin-3-yl)-5,6,7,8-tetrahydro-pyrido[4,3-d]pyrimidin-4-yloxy]-pyrrolidine-1-carbonyl}-pyrrolidin-2-one] were 803 nM and 27 nM.
With `COc1ncc(N2CCc3ncnc(O[C@H]4CCN(C(=O)c5ccncc5)C4)c3C2)cc1C(F)(F)F` [Example 47, {(S)-3-[6-(6-Methoxy-5-trifluoromethyl-pyridin-3-yl)-5,6,7,8-tetrahydro-pyrido[4,3-d]pyrimidin-4-yloxy]-pyrrolidin-1-yl}-pyridin-4-yl-methanone], the IC50 is 656 nM in experiment [1] and 25 nM in experiment [2] (enzymatic assay).
With `COc1ncc(N2CCc3ncnc(O[C@H]4CCN(C(=O)c5cn(C)nc5C)C4)c3C2)cc1C(F)(F)F` [Example 48, (1,3-Dimethyl-1H-pyrazol-4-yl)-{(S)-3-[6-(6-methoxy-5-trifluoromethyl-pyridin-3-yl)-5,6,7,8-tetrahydro-pyrido[4,3-d]pyrimidin-4-yloxy]-pyrrolidin-1-yl}-methanone], the concentration for half-maximal inhibition (IC50) in experiment [1] is 518 nM; in experiment [2] (enzymatic assay), 29 nM.
For `COc1ncc(N2CCc3ncnc(O[C@H]4CCN(C(=O)c5cn[nH]c5)C4)c3C2)cc1C(F)(F)F` [Example 49, {(S)-3-[6-(6-Methoxy-5-trifluoromethyl-pyridin-3-yl)-5,6,7,8-tetrahydro-pyrido[4,3-d]pyrimidin-4-yloxy]-pyrrolidin-1-yl}-(1H-pyrazol-4-yl)-methanone] the same measures were 388 nM and 34 nM.
`COc1ncc(N2CCc3ncnc(O[C@H]4CCN(C(=O)c5nnc(C)o5)C4)c3C2)cc1C(F)(F)F` [Example 51, {(S)-3-[6-(6-Methoxy-5-trifluoromethyl-pyridin-3-yl)-5,6,7,8-tetrahydro-pyrido[4,3-d]pyrimidin-4-yloxy]-pyrrolidin-1-yl}-(5-methyl-[1,3,4]oxadiazol-2-yl)-methanone]: the figures for the half-inhibitory concentration (IC50) in experiment [1] and in experiment [2] (enzymatic assay) were 912 nM and 44 nM, respectively.
With `COc1ncc(N2CCc3ncnc(O[C@H]4CCN(C(=O)c5cnccn5)C4)c3C2)cc1C(F)(F)F` [Example 52, {(S)-3-[6-(6-Methoxy-5-trifluoromethyl-pyridin-3-yl)-5,6,7,8-tetrahydro-pyrido[4,3-d]pyrimidin-4-yloxy]-pyrrolidin-1-yl}-pyrazin-2-yl-methanone], the 50% inhibitory concentration (IC50) amounted to 1020 nM in experiment [1] and 46 nM in experiment [2] (enzymatic assay).
As for `COc1ncc(N2CCc3ncnc(O[C@H]4CCN(C(=O)c5cn(C)cn5)C4)c3C2)cc1C(F)(F)F` [Example 53, {(S)-3-[6-(6-Methoxy-5-trifluoromethyl-pyridin-3-yl)-5,6,7,8-tetrahydro-pyrido[4,3-d]pyrimidin-4-yloxy]-pyrrolidin-1-yl}-(1-methyl-1H-imidazol-4-yl)-methanone], the figures for the IC50 in experiment [1] and in experiment [2] (enzymatic assay) were 504 nM and 6 nM, respectively.
For `COc1ncc(N2CCc3ncnc(O[C@H]4CCN(C(=O)c5cnn(C)c5)C4)c3C2)cc1C(F)(F)F` [Example 54, {(S)-3-[6-(6-Methoxy-5-trifluoromethyl-pyridin-3-yl)-5,6,7,8-tetrahydro-pyrido[4,3-d]pyrimidin-4-yloxy]-pyrrolidin-1-yl}-(1-methyl-1H-pyrazol-4-yl)-methanone] the same measures were 384 nM and 5 nM.
For the compound `COc1ncc(N2CCc3ncnc(O[C@H]4CCN(C(=O)c5cscn5)C4)c3C2)cc1C(F)(F)F` [Example 55, {(S)-3-[6-(6-Methoxy-5-trifluoromethyl-pyridin-3-yl)-5,6,7,8-tetrahydro-pyrido[4,3-d]pyrimidin-4-yloxy]-pyrrolidin-1-yl}-thiazol-4-yl-methanone], the 50% inhibitory concentration (IC50) in experiment [1] amounted to 661 nM; in experiment [2] (enzymatic assay), 5 nM.
Consider `COc1ncc(N2CCc3ncnc(O[C@H]4CCN(C(=O)C5CCOCC5)C4)c3C2)cc1Cl` [Example 56, {(S)-3-[6-(5-Chloro-6-methoxy-pyridin-3-yl)-5,6,7,8-tetrahydro-pyrido[4,3-d]pyrimidin-4-yloxy]-pyrrolidin-1-yl}-(tetrahydro-pyran-4-yl)-methanone], for which the IC50 in experiment [1] was 860 nM; in experiment [2] (enzymatic assay) it was 13 nM.
For `Nc1ncc(N2CCc3ncnc(O[C@H]4CCN(C(=O)C5CCOCC5)C4)c3C2)cc1C(F)(F)F` [Example 57, {(S)-3-[6-(6-Amino-5-trifluoromethyl-pyridin-3-yl)-5,6,7,8-tetrahydro-pyrido[4,3-d]pyrimidin-4-yloxy]-pyrrolidin-1-yl}-(tetrahydro-pyran-4-yl)-methanone], the results for the IC50 in experiment [1] and in experiment [2] (enzymatic assay) were 590 nM and 25 nM, respectively.
For the compound `COc1ncc(N2CCc3ncnc(OC4CN(C(=O)C5CCOCC5)C4)c3C2)cc1C(F)(F)F` [Example 58, {3-[6-(6-Methoxy-5-trifluoromethyl-pyridin-3-yl)-5,6,7,8-tetrahydro-pyrido[4,3-d]pyrimidin-4-yloxy]-azetidin-1-yl}-(tetrahydro-pyran-4-yl)-methanone], the figures for the half-inhibitory concentration (IC50) in experiment [1] and in experiment [2] (enzymatic assay) were 3060 nM and 30 nM, respectively.
As for `COc1ncc(N2CCc3ncnc(O[C@H]4CCN(C(=O)C5CCOCC5)C4)c3C2)cn1` [Example 59, {(S)-3-[6-(2-Methoxy-pyrimidin-5-yl)-5,6,7,8-tetrahydro-pyrido[4,3-d]pyrimidin-4-yloxy]-pyrrolidin-1-yl}-(tetrahydro-pyran-4-yl)-methanone], the IC50 in experiment [1] was found to be 9100 nM; in experiment [2] (enzymatic assay), 28 nM.
Taken in the same sequence, the figures for `O=C(C1CCOCC1)N1CC[C@H](Oc2ncnc3c2CN(c2cnc4ccccc4c2)CC3)C1` [Example 60, [(S)-3-(6-Quinolin-3-yl-5,6,7,8-tetrahydro-pyrido[4,3-d]pyrimidin-4-yloxy)-pyrrolidin-1-yl]-(tetrahydro-pyran-4-yl)-methanone] were 3330 nM and 45 nM.
For `COc1ncc(N2CCc3ncnc(O[C@H]4CCN(C(=O)C5CCOCC5)C4)c3C2)cc1C(F)(F)F` [Example 61, {(S)-3-[6-(6-Methoxy-5-trifluoromethyl-pyridin-3-yl)-5,6,7,8-tetrahydro-pyrido[4,3-d]pyrimidin-4-yloxy]-pyrrolidin-1-yl}-(tetrahydro-pyran-4-yl)-methanone] the same measures were 589 nM and 12 nM.
For `COc1ncc(N2CCc3ncnc(O[C@H]4CCN(C(=O)CC(C)(C)C)C4)c3C2)cc1C(F)(F)F` [Example 62, 1-{(S)-3-[6-(6-Methoxy-5-trifluoromethyl-pyridin-3-yl)-5,6,7,8-tetrahydro-pyrido[4,3-d]pyrimidin-4-yloxy]-pyrrolidin-1-yl}-3,3-dimethyl-butan-1-one] the same measures were 489 nM and 23 nM.
For the compound `CCC(=O)N1CC[C@H](Oc2ncnc3c2CN(c2cnc(OC)c(C(F)(F)F)c2)CC3)C1` [Example 63, 1-{(S)-3-[6-(6-Methoxy-5-trifluoromethyl-pyridin-3-yl)-5,6,7,8-tetrahydro-pyrido[4,3-d]pyrimidin-4-yloxy]-pyrrolidin-1-yl}-propan-1-one], the half-maximal inhibitory concentration (IC50) in experiment [1] worked out at 791 nM; in experiment [2] (enzymatic assay) it was 51 nM.
As to `CCC(=O)N1CC[C@H](Oc2ncnc3c2CN(c2cnc(OC)c(C#N)c2)CC3)C1` [Example 64, 2-Methoxy-5-[4-((S)-1-propionyl-pyrrolidin-3-yloxy)-7,8-dihydro-5H-pyrido[4,3-d]pyrimidin-6-yl]-nicotinonitrile], the IC50 in experiment [1] was 2330 nM; in experiment [2] (enzymatic assay), 32 nM.
Regarding `COc1ncc(N2CCc3ncnc(O[C@H]4CCN(c5ncccn5)C4)c3C2)cc1C(F)(F)F` [Example 66, 6-(6-Methoxy-5-trifluoromethyl-pyridin-3-yl)-4-((S)-1-pyrimidin-2-yl-pyrrolidin-3-yloxy)-5,6,7,8-tetrahydro-pyrido[4,3-d]pyrimidine], the figures for the IC50 in experiment [1] and in experiment [2] were 1280 nM and 14 nM, respectively.
`COc1ncc(N2CCc3ncnc(N[C@H]4CCN(C(=O)C5CCOCC5)C4)c3C2)cc1C#N` [Example 69, 2-Methoxy-5-{4-[(S)-1-(tetrahydro-pyran-4-carbonyl)-pyrrolidin-3-ylamino]-7,8-dihydro-5H-pyrido[4,3-d]pyrimidin-6-yl}-nicotinonitrile]: the IC50 in experiment [1] came to 56 nM; in experiment [2] (enzymatic assay) it was 3 nM.
Taken in the same sequence, the figures for `COc1ncc(N2CCc3ncnc(N[C@H]4CCN(C(=O)C5CCN(C(C)=O)CC5)C4)c3C2)cc1C(F)(F)F` [Example 70, 1-(4-{(S)-3-[6-(6-methoxy-5-trifluoromethyl-pyridin-3-yl)-5,6,7,8-tetrahydro-pyrido[4,3-d]pyrimidin-4-ylamino]-pyrrolidine-1-carbonyl}-piperidin-1-yl)-ethanone] were 121 nM and 6 nM.
Taken in the same sequence, the figures for `COc1ncc(N2CCc3ncnc(N[C@H]4CCN(C(=O)c5cnco5)C4)c3C2)cc1C(F)(F)F` [Example 72, {(S)-3-[6-(6-Methoxy-5-trifluoromethyl-pyridin-3-yl)-5,6,7,8-tetrahydro-pyrido[4,3-d]pyrimidin-4-ylamino]-pyrrolidin-1-yl}-oxazol-5-yl-methanone] were 93 nM and 4 nM.
For `COc1ncc(N2CCc3ncnc(N[C@H]4CCN(C(=O)c5cn(C)cn5)C4)c3C2)cc1C` [Example 77, -{(S)-3-[6-(6-Methoxy-5-methyl-pyridin-3-yl)-5,6,7,8-tetrahydro-pyrido[4,3-d]pyrimidin-4-ylamino]-pyrrolidin-1-yl}-(1-methyl-1H-imidazol-4-yl)-methanone] the same measures were 1290 nM and 44 nM.
Consider `COc1ncc(N2CCc3ncnc(N[C@H]4CCN(C(=O)c5cnco5)C4)c3C2)cc1C` [Example 78, {(S)-3-[6-(6-Methoxy-5-methyl-pyridin-3-yl)-5,6,7,8-tetrahydro-pyrido[4,3-d]pyrimidin-4-ylamino]-pyrrolidin-1-yl}-oxazol-5-yl-methanone], for which the half-inhibitory concentration (IC50) in experiment [1] was found to be 384 nM; in experiment [2] (enzymatic assay), 12 nM.
